Data: US10206399B2, “Herbicidal composition comprising uracil compound as active ingredient” (Dongbu Farm Hannong Co., Ltd., priority 2012, dated 2019)
Read-outs that look alike come from different tables or passages of the source.

Columns and labels:
Aeschynomene indica = settings: for plant mortality, measured value: Aeschynomene indica; for Aeschynomene indica mortality, measured value: 20 days after treatment
Text: (§1) X is % damage by uracil compound (a) of formula 1 at the rate of application of p kg/ha; Y is % damage by conventional herbicidal compound (b) at the rate of application of q kg/ha; and E is the expected damage caused by compounds (a) and (b) at a rate of application of p and q kg/ha.
(§2) The expected activity for a given combination of two herbicides can be calculated using equation 1 above.

Xanthium spinosum = settings: for plant mortality, measured value: Xanthium spinosum; for Xanthium spinosum mortality, measured value: 20 days after treatment
Text: as §1, §2

Abutilon theophrasti = settings: for plant mortality, measured value: Abutilon theophrasti; for Abutilon theophrasti mortality, measured value: 20 days after treatment
Text: as §1, §2

Echinochloa crus [1] = settings: for plant mortality, measured value: Echinochloa crus; for Echinochloa crus mortality, measured value: 20 days after treatment
Text: as §1, §2

Digitaria sanguinalis = settings: for plant mortality, measured value: Digitaria sanguinalis; for Digitaria sanguinalis mortality, measured value: 20 days after treatment
Text: as §1, §2

Monochoria vaginalis = experiment: Paddy field farming herbicidal composition test, plant mortality; format: in vivo
Text: as §1, §2

Echinochloa crus [2] = experiment: as above; format: in vivo
Text: as §1, §2

[3] = Pontederia vaginalis, read-out: Monochoria vaginalis mortality (measured value)
[4] = Echinochloa, read-out: Echinochloa crus mortality, measured value

COc1cc(OC)nc(NC(=O)NS(=O)(=O)c2ncccc2OCC(F)(F)F)n1 [Trifloxysulfuron]
Data (measured value) Aeschynomene indica (Aeschynomene indica; 1.25 g/ha): 9
plant mortality, measured value (Aeschynomene indica; 1.25 g/ha): 9
Data (measured value) Aeschynomene indica (Aeschynomene indica; 5 g/ha): 58
plant mortality, measured value (Aeschynomene indica; 5 g/ha): 58
Data (measured value) Xanthium spinosum (Xanthium spinosum; 1.25 g/ha): 13
plant mortality, measured value (Xanthium spinosum; 1.25 g/ha): 13
Data (measured value) Xanthium spinosum (Xanthium spinosum; 5 g/ha): 62
plant mortality, measured value (Xanthium spinosum; 5 g/ha): 62
Data (measured value) Abutilon theophrasti (Abutilon theophrasti; 1.25 g/ha): 12
plant mortality, measured value (Abutilon theophrasti; 1.25 g/ha): 12
Data (measured value) Abutilon theophrasti (Abutilon theophrasti; 5 g/ha): 61
plant mortality, measured value (Abutilon theophrasti; 5 g/ha): 61
Data (measured value) Echinochloa crus (Echinochloa crus [1]; 1.25 g/ha): 8
plant mortality, measured value (Echinochloa crus [1]; 1.25 g/ha): 8
Data (measured value) Echinochloa crus (Echinochloa crus [1]; 5 g/ha): 56
plant mortality, measured value (Echinochloa crus [1]; 5 g/ha): 56
Data (measured value) Digitaria sanguinalis (Digitaria sanguinalis; 1.25 g/ha): 8
plant mortality, measured value (Digitaria sanguinalis; 1.25 g/ha): 8
Data (measured value) Digitaria sanguinalis (Digitaria sanguinalis; 5 g/ha): 51
plant mortality, measured value (Digitaria sanguinalis; 5 g/ha): 51

C[C@@H](Oc1ccc(Oc2ncc(Cl)cc2F)cc1)C(=O)O [Clodinafop, reference compound]
Aeschynomene indica mortality, measured value (Aeschynomene indica; 15 g/ha): 0%
Aeschynomene indica mortality, measured value (Aeschynomene indica; 30 g/ha): 0%
Xanthium spinosum mortality, measured value (Xanthium spinosum; 15 g/ha): 0%
Xanthium spinosum mortality, measured value (Xanthium spinosum; 30 g/ha): 0%
Abutilon theophrasti mortality, measured value (Abutilon theophrasti; 15 g/ha): 0%
Abutilon theophrasti mortality, measured value (Abutilon theophrasti; 30 g/ha): 0%
Echinochloa crus mortality, measured value (Echinochloa crus [1]; 15 g/ha): 25%
Echinochloa crus mortality, measured value (Echinochloa crus [1]; 30 g/ha): 53%
Digitaria sanguinalis mortality, measured value (Digitaria sanguinalis; 15 g/ha): 21%
Digitaria sanguinalis mortality, measured value (Digitaria sanguinalis; 30 g/ha): 50%

Cc1cc(Cl)ccc1OCC(=O)O [MCPA]
Data (measured value) Aeschynomene indica (Aeschynomene indica; 75 g/ha): 11
Data (measured value) Aeschynomene indica (Aeschynomene indica; 150 g/ha): 24
Data (measured value) Aeschynomene indica (Aeschynomene indica; 300 g/ha): 58
Data (measured value) Xanthium spinosum (Xanthium spinosum; 75 g/ha): 8
Data (measured value) Xanthium spinosum (Xanthium spinosum; 150 g/ha): 25
Data (measured value) Xanthium spinosum (Xanthium spinosum; 300 g/ha): 59
Data (measured value) Abutilon theophrasti (Abutilon theophrasti; 75 g/ha): 11
Data (measured value) Abutilon theophrasti (Abutilon theophrasti; 150 g/ha): 32
Data (measured value) Abutilon theophrasti (Abutilon theophrasti; 300 g/ha): 64
Data (measured value) Echinochloa crus (Echinochloa crus [1]; 75 g/ha): 0
Data (measured value) Echinochloa crus (Echinochloa crus [1]; 150 g/ha): 0
Data (measured value) Echinochloa crus (Echinochloa crus [1]; 300 g/ha): 0
Data (measured value) Digitaria sanguinalis (Digitaria sanguinalis; 75 g/ha): 0
Data (measured value) Digitaria sanguinalis (Digitaria sanguinalis; 150 g/ha): 0
Data (measured value) Digitaria sanguinalis (Digitaria sanguinalis; 300 g/ha): 0

Cc1cc(Cl)ccc1OCCCC(=O)O [MCPB]
plant mortality, measured value (Aeschynomene indica; 75 g/ha): 13
plant mortality, measured value (Aeschynomene indica; 150 g/ha): 32
plant mortality, measured value (Aeschynomene indica; 300 g/ha): 64
plant mortality, measured value (Xanthium spinosum; 75 g/ha): 12
plant mortality, measured value (Xanthium spinosum; 150 g/ha): 27
plant mortality, measured value (Xanthium spinosum; 300 g/ha): 58
plant mortality, measured value (Abutilon theophrasti; 75 g/ha): 11
plant mortality, measured value (Abutilon theophrasti; 150 g/ha): 22
plant mortality, measured value (Abutilon theophrasti; 300 g/ha): 52
plant mortality, measured value (Echinochloa crus [1]; 75 g/ha): 9
plant mortality, measured value (Echinochloa crus [1]; 150 g/ha): 27
plant mortality, measured value (Echinochloa crus [1]; 300 g/ha): 57
plant mortality, measured value (Digitaria sanguinalis; 75 g/ha): 12
plant mortality, measured value (Digitaria sanguinalis; 150 g/ha): 25
plant mortality, measured value (Digitaria sanguinalis; 300 g/ha): 56

COc1cc(OC)nc(NC(=O)NS(=O)(=O)c2c(C(=O)O)c(Cl)nn2C)n1 [Halosulfuron]
pest or weed control at 11 g/ha (Monochoria vaginalis; [3]): 30%
pest or weed control at 11 g/ha (Echinochloa crus [2]; [4]): 30%

O=C(O)COc1ccc(Cl)cc1Cl [2,4-D)]
Data (measured value) Aeschynomene indica (Aeschynomene indica; 200 g/ha): 24
Data (measured value) Aeschynomene indica (Aeschynomene indica; 400 g/ha): 51
Data (measured value) Xanthium spinosum (Xanthium spinosum; 200 g/ha): 22
Data (measured value) Xanthium spinosum (Xanthium spinosum; 400 g/ha): 50
Data (measured value) Abutilon theophrasti (Abutilon theophrasti; 200 g/ha): 21
Data (measured value) Abutilon theophrasti (Abutilon theophrasti; 400 g/ha): 47
Data (measured value) Echinochloa crus (Echinochloa crus [1]; 200 g/ha): 0
Data (measured value) Echinochloa crus (Echinochloa crus [1]; 400 g/ha): 0
Data (measured value) Digitaria sanguinalis (Digitaria sanguinalis; 200 g/ha): 0
Data (measured value) Digitaria sanguinalis (Digitaria sanguinalis; 400 g/ha): 0

COc1nc(OC)nc(C(=O)c2cccc(F)c2N(C)S(=O)(=O)C(F)F)n1 [Triafamone]
Monochoria vaginalis mortality (measured value) (Monochoria vaginalis; 12.5 g/ha): 10
Echinochloa crus mortality, measured value (Echinochloa crus [2]; 12.5 g/ha): 50

O=C(O)COc1ccc(Cl)cc1Cl [2,4-D]
Data (measured value) Aeschynomene indica (Aeschynomene indica; 100 g/ha): 7
plant mortality, measured value (Aeschynomene indica; 100 g/ha): 7
plant mortality, measured value (Aeschynomene indica; 200 g/ha): 24
plant mortality, measured value (Aeschynomene indica; 400 g/ha): 51
Data (measured value) Xanthium spinosum (Xanthium spinosum; 100 g/ha): 10
plant mortality, measured value (Xanthium spinosum; 100 g/ha): 10
plant mortality, measured value (Xanthium spinosum; 200 g/ha): 22
plant mortality, measured value (Xanthium spinosum; 400 g/ha): 50
Data (measured value) Abutilon theophrasti (Abutilon theophrasti; 100 g/ha): 7
plant mortality, measured value (Abutilon theophrasti; 100 g/ha): 7
plant mortality, measured value (Abutilon theophrasti; 200 g/ha): 21
plant mortality, measured value (Abutilon theophrasti; 400 g/ha): 47
Data (measured value) Echinochloa crus (Echinochloa crus [1]; 100 g/ha): 0
plant mortality, measured value (Echinochloa crus [1]; 100 g/ha): 0
plant mortality, measured value (Echinochloa crus [1]; 200 g/ha): 0
plant mortality, measured value (Echinochloa crus [1]; 400 g/ha): 0
Data (measured value) Digitaria sanguinalis (Digitaria sanguinalis; 100 g/ha): 0
plant mortality, measured value (Digitaria sanguinalis; 100 g/ha): 0
plant mortality, measured value (Digitaria sanguinalis; 200 g/ha): 0
plant mortality, measured value (Digitaria sanguinalis; 400 g/ha): 0

CCSC(=O)N1CCCCCC1 [molinate]
pest or weed control at 500 g/ha (Monochoria vaginalis; [3]): 0%
pest or weed control at 500 g/ha (Echinochloa crus [2]; [4]): 50%

COc1cc(OC)nc(NC(=O)NS(=O)(=O)c2c(C3=NOCC(C)O3)c(Cl)nn2C)n1 (centres unmarked) [Metazosulfuron]
Monochoria vaginalis mortality (measured value) (Monochoria vaginalis; 25 g/ha): 40
Echinochloa crus mortality, measured value (Echinochloa crus [2]; 25 g/ha): 35

CCCc1ccc2nc(Cl)c(S(=O)(=O)NC(=O)Nc3nc(OC)cc(OC)n3)n2n1 [Propyrisulfuron]
Monochoria vaginalis mortality (measured value) (Monochoria vaginalis; 18 g/ha): 45
Echinochloa crus mortality, measured value (Echinochloa crus [2]; 18 g/ha): 45

COCCOc1ccccc1S(=O)(=O)NC(=O)N=c1nc(OC)[nH]c(OC)n1 [Cinosulfuron]
pest or weed control at 10 g/ha (Monochoria vaginalis; [3]): 30%
pest or weed control at 10 g/ha (Echinochloa crus [2]; [4]): 20%

COc1cccc(N(C)C(=S)Oc2cccc(C(C)(C)C)c2)n1 [Pyributicarb]
pest or weed control at 150 g/ha (Monochoria vaginalis; Pontederia vaginalis, 150 g/ha, read-out: Monochoria vaginalis mortality (measured value)): 20%
pest or weed control at 150 g/ha (Echinochloa crus [2]; Echinochloa, 150 g/ha, read-out: Echinochloa crus mortality (measured value)): 20%

C[C@@H](Oc1ccc(Oc2nc3ccc(Cl)cc3o2)cc1)C(=O)N(C)c1ccccc1F [Metamifop, reference compound]
Aeschynomene indica mortality, measured value (Aeschynomene indica; 25 g/ha): 0%
plant mortality, measured value (Aeschynomene indica; 25 g/ha): 0
Aeschynomene indica mortality, measured value (Aeschynomene indica; 50 g/ha): 0%
plant mortality, measured value (Aeschynomene indica; 50 g/ha): 0
Aeschynomene indica mortality, measured value (Aeschynomene indica; 100 g/ha): 0%
plant mortality, measured value (Aeschynomene indica; 100 g/ha): 0
Xanthium spinosum mortality, measured value (Xanthium spinosum; 25 g/ha): 0%
plant mortality, measured value (Xanthium spinosum; 25 g/ha): 0
Xanthium spinosum mortality, measured value (Xanthium spinosum; 50 g/ha): 0%
plant mortality, measured value (Xanthium spinosum; 50 g/ha): 0
Xanthium spinosum mortality, measured value (Xanthium spinosum; 100 g/ha): 0%
plant mortality, measured value (Xanthium spinosum; 100 g/ha): 0
Abutilon theophrasti mortality, measured value (Abutilon theophrasti; 25 g/ha): 0%
plant mortality, measured value (Abutilon theophrasti; 25 g/ha): 0
Abutilon theophrasti mortality, measured value (Abutilon theophrasti; 50 g/ha): 0%
plant mortality, measured value (Abutilon theophrasti; 50 g/ha): 0
Abutilon theophrasti mortality, measured value (Abutilon theophrasti; 100 g/ha): 0%
plant mortality, measured value (Abutilon theophrasti; 100 g/ha): 0
Echinochloa crus mortality, measured value (Echinochloa crus [1]; 25 g/ha): 11%
plant mortality, measured value (Echinochloa crus [1]; 25 g/ha): 11
Echinochloa crus mortality, measured value (Echinochloa crus [1]; 50 g/ha): 26%
plant mortality, measured value (Echinochloa crus [1]; 50 g/ha): 26
Echinochloa crus mortality, measured value (Echinochloa crus [1]; 100 g/ha): 57%
plant mortality, measured value (Echinochloa crus [1]; 100 g/ha): 57
Digitaria sanguinalis mortality, measured value (Digitaria sanguinalis; 25 g/ha): 11%
plant mortality, measured value (Digitaria sanguinalis; 25 g/ha): 11
Digitaria sanguinalis mortality, measured value (Digitaria sanguinalis; 50 g/ha): 23%
plant mortality, measured value (Digitaria sanguinalis; 50 g/ha): 23
Digitaria sanguinalis mortality, measured value (Digitaria sanguinalis; 100 g/ha): 48%
plant mortality, measured value (Digitaria sanguinalis; 100 g/ha): 48

CON=C(C)c1cccc(Oc2nc(OC)cc(OC)n2)c1C(=O)O [Pyriminobac]
Monochoria vaginalis mortality (measured value) (Monochoria vaginalis; 11 g/ha): 0
Echinochloa crus mortality, measured value (Echinochloa crus [2]; 11 g/ha): 50

CCOc1ccccc1OS(=O)(=O)NC(=O)Nc1nc(OC)cc(OC)n1 [Ethoxysulfuron]
pest or weed control at 15 g/ha (Monochoria vaginalis; [3]): 20%
pest or weed control at 15 g/ha (Echinochloa crus [2]; [4]): 10%

COCc1cccc(C(O)c2nc(OC)cc(OC)n2)c1NS(=O)(=O)C(F)F (centres unmarked) [Pyrimisulfan]
Monochoria vaginalis mortality (measured value) (Monochoria vaginalis; 16.5 g/ha): 50
Echinochloa crus mortality, measured value (Echinochloa crus [2]; 16.5 g/ha): 40

COc1cc(OC)nc(NC(=O)NS(=O)(=O)Nc2ccccc2C(=O)C2CC2)n1 [Cyclosulfamuron]
pest or weed control at 11 g/ha (Monochoria vaginalis; Pontederia vaginalis, 11 g/ha, read-out: Monochoria vaginalis mortality (measured value)): 50%
pest or weed control at 11 g/ha (Echinochloa crus [2]; Echinochloa, 11 g/ha, read-out: Echinochloa crus mortality (measured value)): 30%

COc1cc(OC)nc(Sc2cccc3c2C(=O)OC3C)n1 (centres unmarked) [Pyritlalid]
Monochoria vaginalis mortality (measured value) (Monochoria vaginalis; 37.5 g/ha): 0
Echinochloa crus mortality, measured value (Echinochloa crus [2]; 37.5 g/ha): 30

COc1cc(OC)nc(NC(=O)NS(=O)(=O)c2c(-c3nnn(C)n3)cnn2C)n1 [Azimsulfuron]
pest or weed control at 5 g/ha (Monochoria vaginalis; Pontederia vaginalis, 5 g/ha, read-out: Monochoria vaginalis mortality (measured value)): 50%
pest or weed control at 5 g/ha (Echinochloa crus [2]; Echinochloa, 5 g/ha, read-out: Echinochloa crus mortality (measured value)): 30%

CCN(C(=O)n1nnn(-c2ccccc2Cl)c1=O)C1CCCCC1 [Fentrazamide]
pest or weed control at 50 g/ha (Monochoria vaginalis; [3]): 30%
pest or weed control at 50 g/ha (Echinochloa crus [2]; [4]): 20%

CCC1(CC2(c3cccc(Cl)c3)CO2)C(=O)c2ccccc2C1=O (centres unmarked) [Indanofan]
pest or weed control at 37.5 g/ha (Monochoria vaginalis; [3]): 0%
pest or weed control at 37.5 g/ha (Echinochloa crus [2]; [4]): 25%

COc1cc(OC)nc(NC(=O)NS(=O)(=O)c2c(Cl)nc3ccccn23)n1 [Imazosulfuron]
pest or weed control at 18 g/ha (Monochoria vaginalis; Pontederia vaginalis, 18 g/ha, read-out: Monochoria vaginalis mortality (measured value)): 40%
pest or weed control at 18 g/ha (Echinochloa crus [2]; Echinochloa, 18 g/ha, read-out: Echinochloa crus mortality (measured value)): 20%
